The target in experiment [1] is T1, MIF (Homo sapiens, UniProt P14174).
T1 sequence (P14174 1-115): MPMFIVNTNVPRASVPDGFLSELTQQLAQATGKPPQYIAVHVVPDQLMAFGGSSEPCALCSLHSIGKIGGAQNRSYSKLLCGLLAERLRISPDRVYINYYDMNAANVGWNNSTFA
Nature of the experiment: Nuclease assay of Example 3 (MIF inhibitory activity, Table 4). It counts as biochemical. The conditions noted are these: nuclease assay of Example 3. The gist of the method: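 Human genomic DNA (200 ng), pcDNA (200 ng) or PS^30-type substrates (1 μM) were incubated with MIF (0.25-8 μM final) in 10 mM Tris-HCl pH 7.0, 10 mM MgCl2, 1 mM DTT at 37 °C for 1 h (pcDNA, small substrates) or 4 h (genomic DNA). Cleavage was assessed by agarose or PAGE electrophoresis with EtBr staining and chemiluminescent detection of biotin-labelled DNA.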

Experiment [2] has as its system HeLa cells or neuronal cells. Nature of the experiment: Cell death assay of Example 3 (MNNG, alamarBlue; protection against parthanatos, Table 4). It counts as cell-based. The note with it: 1 μM test compound, MNNG-induced cell death, alamarBlue. The gist of the method:
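HeLa or neuronal cells (1×10^4/well) were pretreated 1 h at 37° C with 1 μM compound, exposed to MNNG for 15 min, washed, then re-incubated 18 h with 1 μM compound. Viability was read by alamarBlue fluorescence (ex 560/em 590 nm). Cell death was expressed relative to control wells.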
Background: Resazurin is reduced to fluorescent resorufin, in cell work by metabolically active cells.

The target in experiment [3] is T2, PAAN/MIF (Homo sapiens, UniProt P14174).
T2 construct: GST (N, cleaved yes); made in house; host or cells: Escherichia coli
T2 sequence (P14174 1-115): T1 sequence (P14174 1-115)
Briefly: In vitro PAAN/MIF nuclease assay (PS30 or RF substrate, PAGE gel, noncleaved substrate DNA). The conditions noted are these: RF and PS30 substrates. It counts as biochemical. The protocol:
Nuclease assay. Purified PAAN/MIF protein (4 μM) was incubated with compounds (10 μM) in the nuclease buffer [10 mM Tris-C1 (pH 7.0) and 10 mM MgCl2] for 20 m on ice. Then samples were added with 1 μM of PAAN/MIF substrate (PS30 or RF) and incubated for 1 h at 37° C. The reaction was terminated with loading buffer containing 10 mM EDTA and separated on 15% TBE-urea polyacrylamide (PAGE) gel or 20% TBE PAGE gel.
Purification of PAAN/MIF recombinant proteins. Human PAAN/MIF (NM_002415) cDNA and its variants were subcloned into pGEX-6β-1 vector (GE Healthcare) and mutants were generated using a QuikChange site-directed mutagenesis kit (Stratagene). The sequences were confirmed by automated DNA sequencing. The protein was expressed and purified from Escherichia coli by glutathione sepharose (GE Healthcare). The GST tag was subsequently proteolytically removed. GST protein was used as a negative control in the nuclease assay and PAAN/MIF proteins purified by FPLC using Superdex 200 10/300GL column (GE Healthcare, Life Sciences) were also used in the nuclease assays.

Entries after “also recorded” stand apart in the source; their conditions may differ.

For the molecule `COc1ccc(CC[C@H]2OC(=O)[C@@H]3CCCCN3C(=O)C(=O)C(C)(C)COC(=O)C=CCCN(C)C(=O)[C@@H]3CCCN3C(=O)[C@H](COC(C)(C)C)N(C)C(=O)C(c3ccccc3)NC(=O)[C@H](C)N(C)C(=O)COc3cc(F)cc2c3)cc1OC` (mixture of isomers) [compound 121], the “(%) inhibition of MIF nuclease activity” value in experiment [1] worked out at 71.2%. For the same molecule, the “(%) inhibition of cell death” value in experiment [2] is on record as 90.1%. Further, the “inhibition of PAAN/MIF nuclease activity” value in experiment [3] is given as “inhibited”.

As to `COc1ccc(CC[C@H]2OC(=O)[C@@H]3CCCCN3C(=O)C(=O)C(C)(C)COC(=O)C=CCCN(C)C(=O)[C@@H]3CCCN3C(=O)[C@H](COC(C)(C)C)N(C)C(=O)C(c3ccccc3)NC(=O)CN(C)C(=O)COc3cccc2c3)cc1OC` (stereo partly drawn) [compound 41], in experiment [1], the “(%) inhibition of MIF nuclease activity” value is 82.0%. Moreover, in experiment [2] (1 µM), the “(%) inhibition of cell death” value was found to be 80.6%. For the same molecule, the “inhibition of PAAN/MIF nuclease activity” value in experiment [3] is listed as “prominently blocked”.

As to `COc1ccc(CC[C@H]2OC(=O)[C@@H]3CCCCN3C(=O)C(=O)C(C)(C)COC(=O)C=CCCN(C)C(=O)[C@@H]3CCCN3C(=O)[C@H](COC(C)(C)C)N(C)C(=O)C(c3ccccc3)NC(=O)[C@H](C)N(C)C(=O)COc3cccc2c3)cc1OC` (stereo partly drawn) [compound 56], the “(%) inhibition of MIF nuclease activity” value in experiment [1] amounted to 70.8%. In addition, in experiment [2] (1 µM), the “(%) inhibition of cell death” value is listed as 81.5%. The “inhibition of PAAN/MIF nuclease activity” value in experiment [3] was “prominently blocked; also recorded: inhibited”.

For the molecule `COc1ccc(CC[C@H]2OC(=O)[C@@H]3CCCCN3C(=O)C(=O)C(C)(C)COC(=O)C=CCCN(C)C(=O)CNC(=O)[C@H](C(C)C)N(C)C(=O)[C@@H](Cc3ccccc3)NC(=O)[C@H](CC(C)C)N(C)C(=O)CCC(=O)Nc3cccc2c3)cc1OC` [compound 76], in experiment [1], the “(%) inhibition of MIF nuclease activity” value stood at 73.5%. In addition, the “(%) inhibition of cell death” value in experiment [2] was determined as 79.2%. Besides, in experiment [3], the “inhibition of PAAN/MIF nuclease activity” value is “prominently blocked”.

Consider `COc1ccc(CC[C@H]2OC(=O)[C@@H]3CCCCN3C(=O)C(=O)C(C)(C)COC(=O)C=CCCN(C)C(=O)[C@H](C)NC(=O)[C@H](C(C)C)N(C)C(=O)[C@@H](Cc3ccccc3)NC(=O)[C@H](CC(C)C)N(C)C(=O)CCC(=O)Nc3cccc2c3)cc1OC` [compound 77], for which the “(%) inhibition of MIF nuclease activity” value in experiment [1] was found to be 75.5%. The “(%) inhibition of cell death” value in experiment [2] worked out at 77.9%. Moreover, the “inhibition of PAAN/MIF nuclease activity” value in experiment [3] is reported as “prominently blocked”.

Consider `COc1ccc(CC[C@H]2OC(=O)[C@@H]3CCCCN3C(=O)C(=O)C(C)(C)COC(=O)C=CCCN(C)C(=O)[C@@H]3CCCN3C(=O)[C@H](CO)N(C)C(=O)C(c3ccccc3)NC(=O)[C@H](C)N(C)C(=O)COc3cccc2c3)cc1OC` (stereo partly drawn) [compound 97], for which the “(%) inhibition of MIF nuclease activity” value in experiment [1] is −5.3%. In addition, the “(%) inhibition of cell death” value in experiment [2] was determined as 41.4%. For the same molecule, in experiment [3], the “inhibition of PAAN/MIF nuclease activity” value was “has no effect”.

Source of the values: patent US20220372014A1, “NEUROPROTECTIVE COMPOUNDS AND METHODS OF USE THEREOF” (The Johns Hopkins University, priority 2019, published 2022).
